Assay results from PMC8312464, “Inhibition of heat shock proteins increases autophagosome formation, and reduces the expression of APP, Tau, SOD1 G93A and TDP-43” (Aging (Albany NY), 2021).

Key:
GRP78 = biological target: T1, GRP78 (Homo sapiens, UniProt P11021); test: ATPase activity (ATP-lite luminescence) of immunoprecipitated GRP78 on Sepharose beads; format: biochemical
T1 construct: gene HSPA5; GRP78 expressed from a plasmid in GBM12 cells, immuno-precipitated with an antibody to the COOH terminal portion

HSP90 = biological target: T2, HSP90; test: ATPase activity (ATP-lite luminescence) of immunoprecipitated FLAG-HSP90 on Sepharose beads; format: biochemical
T2 construct: FLAG-tagged HSP90 expressed in GBM12 cells, immuno-precipitated by its tag
Source text: ATPase activity (ATP-lite luminescence) of immunoprecipitated FLAG-HSP90 on Sepharose beads on HSP90 | In a dose-dependent fashion AR12 inhibited the ATPase activities of HSP90, HSP70 and GRP78

T1 sequence (P11021 19-654): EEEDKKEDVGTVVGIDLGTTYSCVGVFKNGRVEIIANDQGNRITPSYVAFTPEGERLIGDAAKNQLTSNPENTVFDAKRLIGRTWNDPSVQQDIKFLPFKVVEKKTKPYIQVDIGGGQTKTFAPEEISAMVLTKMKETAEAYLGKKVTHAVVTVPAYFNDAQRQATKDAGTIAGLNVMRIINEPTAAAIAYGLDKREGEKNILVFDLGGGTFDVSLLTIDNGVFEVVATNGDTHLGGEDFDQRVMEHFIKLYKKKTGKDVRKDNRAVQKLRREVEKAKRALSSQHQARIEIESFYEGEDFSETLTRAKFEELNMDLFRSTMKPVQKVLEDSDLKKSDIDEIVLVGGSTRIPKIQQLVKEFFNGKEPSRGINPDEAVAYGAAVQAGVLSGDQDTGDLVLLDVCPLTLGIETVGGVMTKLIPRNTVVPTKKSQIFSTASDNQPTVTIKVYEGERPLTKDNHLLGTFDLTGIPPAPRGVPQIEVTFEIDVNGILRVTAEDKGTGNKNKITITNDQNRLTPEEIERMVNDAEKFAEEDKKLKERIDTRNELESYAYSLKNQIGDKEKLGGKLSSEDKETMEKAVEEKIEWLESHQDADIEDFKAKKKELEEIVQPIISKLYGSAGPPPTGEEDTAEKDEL

`NCC(=O)Nc1ccc(-n2nc(C(F)(F)F)cc2-c2ccc3c(ccc4ccccc43)c2)cc1` [AR12] showed an IC50 (GRP78) of about 80 nM and an IC50 (HSP90) of about 300 nM.
